Laboratory results from patent publication US7968109B2, “Liquid compositions for treating plant propagation materials” (Syngenta Crop Protection Inc., priority 2005, dated 2011).

Tests used:
[1] = Selective loading of active ingredient on cut side and skin side of tuber; type: physicochemical, potato; settings: analyte fludioxonil
Description: Generally, treatment of potato tubers and/or cut seeds with liquid pesticides results in the majority of the pesticide settling on the cut side of the seed rather than on the skin side of the seed. Such affinity for the cut side is thought to be based on the pesticides' affinity for water. […] Rather, the pesticidal action is more useful on the skin side of the tuber, where the eyes are present and where germination occurs.
Although not wanting to be bound by any particular theory, it is thought that the nonpolar nature of the waxes and silicas present in the formulations of the present invention have affinity for the skin side, causing a greater loading of the active ingredients on the skin side.

Colorado Potato Beetles = assay: Control of Colorado Potato Beetles on potatoes (defoliation); type: in vivo
Experimental: Comparative trials were conducted to show the protection of the formulation described herein against different insect pests.

SMILES | Amount of fludioxonil present on cut side of tuber ([1]; cut side) | Amount of fludioxonil present on skin side of tuber ([1]; skin side) | % Defoliation (Colorado Potato Beetles; 102 days after planting (Wash. State)) | % Defoliation (Colorado Potato Beetles; 105 days after planting (Idaho))
N#Cc1c[nH]cc1-c1cccc2c1OC(F)(F)O2 [Fludioxonil] | 21 | 21 |  | 
O=[N+]([O-])NC1=NCCN1Cc1ccc(Cl)nc1 [Imidacloprid, imidacloprid] |  |  | 9% | 0%
